The values below come from publication PMC9977887, “Crocodile defensin (CpoBD13) antifungal activity via pH-dependent phospholipid targeting and membrane disruption” (Nature Communications, 2023).

Like-named read-outs stand apart in the source and are kept apart here.

Series [1] deals with C. albicans ATCC 10231. Briefly: Fungal growth inhibition assay. It counts as cell-based, Candida albicans. The following applies: 24 h; for IC50: unit not in table, µM, read-out: IC50. Here is the method:
For fungal growth assays, overnight cultures of C. albicans ATCC 10231 cells (yeast peptone dextrose broth, 30°C, shaking at 160 rpm) were pelleted (2000 g, 5 min), washed once in 0.5× potato dextrose broth (BD Biosciences, Franklin Lakes, NJ) and finally resuspended in the same media. Cells were seeded onto a 96-well plate (400 cells, 50 µL) and treated with an equal volume of varying concentrations of defensin in 0.5× potato dextrose broth. After incubating the samples (24 h, 30 °C), the plates were shaken to distribute the cells and growth was determined by performing a 9-well scan (600 nm) using a Spectramax M5e microplate reader (Molecular Devices, San Jose, CA). For assays testing defensin salt tolerance, C. albicans cells were instead resuspended in 1x potato dextrose broth and treated with an equal volume of CpoBD13 + NaCl solution at their intended concentrations. Propidium iodide (PI) uptake assays were performed by preparing the cells as per the standard growth inhibition assay however they were instead seeded onto a U-bottom 96-well plate (50,000 cells, 25 µL). […] For PI uptake experiments performed at a specific pH, the same method was followed with the exception that cells were resuspended in 1× potato dextrose broth while defensin titrations were diluted in 40 mM MES buffer at the intended pH. An example PI uptake gating strategy is presented in Supplementary Fig. 1d.

The nature of series [2]: Liposome pulldown. In kind it is binding. The following applies: 1 µg defensin; for Fraction of total protein (%), bound fraction: pH 5.5 (20 mM MES); for Fraction of total protein (%), Bound: pH 7.4. Here is the method:
(§1) Liposomes were prepared using natural chicken egg L-α-phophatidylcholine and L-α-phosphatidic acid dissolved in chloroform (Avanti Polar Lipids), and liposome pulldowns (at pH 7.4) and calcein-encapsulated liposome lysis assays were performed as previously described. For liposome pulldowns performed at pH 5.5, the same protocol was used with minor variations. The desiccated lipid films were resuspended in 20 mM MES pH 7.4 and were washed in the same buffer during the centrifugation process. After the final wash step, the liposome pellets were resuspended in 20 mM MES pH 5.5 and incubated with CpoBD13 or mutants thereof (also prepared in the same acidic buffer).

Series [3] in a line: Calcein-encapsulated liposome lysis assay. It counts as biochemical. Here is the method:
as §1

In series [4] the target is PC only liposomes. Briefly: liposome pulldown. The following applies: 1 µg peptide, PC only, read off a plot.
Series [5] has as its target PC:PA liposomes (95:5 molar ratio PC:PA). Kind of series: liposome pulldown. Particulars: 1 µg peptide, 95:5 molar ratio PC:PA, read off a plot.
Series [6] concerns the molecule itself. Kind of series: cross-linking; BS(PEG)5 cross-linker; CpoBD13 (1 mg/mL stock) with 0 or 23 µM phosphatidic acid (08:0 PA; 0 or 0.092 mM stock), 20 mM HEPES pH 7.1, 30 min; SDS-PAGE and colloidal Coomassie.
Series [7] concerns the molecule itself. Briefly: cross-linking; BS(PEG)5 cross-linker; CpoBD13 or mutant (1 mg/mL stock) with 115 µM phosphatidic acid (08:0 PA; 0.46 mM stock), 20 mM HEPES pH 7.1, 30 min; SDS-PAGE and colloidal Coomassie.
Setting [8] is: PC:PA 95:5 liposomes, replicate 1.
Where [9] appears, read: PC:PA 95:5 liposomes, replicate 2.
[10] abbreviates: PC:PA 95:5 liposomes, replicate 3.

By IC50 is commonly meant the concentration needed to halve the response being measured. Turning to “CpoBD13 (H35A): CpoBD13 point mutant H35A”, in series [1] (IC50 comparison, two-tailed unpaired t test), the “fungal growth inhibition activity compared to the wild type” value is reported as “No significant differences”. Besides, the IC50 in series [1] (Replicate 1) worked out at 4.14 µM; in series [1] (Replicate 2), 4.17 µM; in series [1] (Replicate 3) it was 4.2 µM. The “Fraction of total protein (%), bound fraction” value in series [2] (PC only liposomes, replicate 1) stood at 23.8871%; in series [2] (PC only liposomes, replicate 2), 10.4017%; in series [2] (PC only liposomes, replicate 3) it was 20.2373%; in series [2] (setting [8]), 106.585%; in series [2] (setting [9]), 65.0801%; in series [2] (setting [10]) it was 97.4485%. Moreover, the “Fraction of total protein (%), Bound” value was 14.047% in series [2] (PC only liposomes, replicate 1); 12.1176% in series [2] (PC only liposomes, replicate 2); 23.9918% in series [2] (PC only liposomes, replicate 3); 42.5181% in series [2] (setting [8]); 53.6354% in series [2] (setting [9]); 32.306% in series [2] (setting [10]). Also, the “Lysis (%)” value in series [3] (PC liposomes, replicate 1) was 59.2077%; in series [3] (PC liposomes, replicate 2), 47.882%; in series [3] (PC liposomes, replicate 3), 48.469%; in series [3] (PC:PA liposomes, replicate 1) it was 63.0445%; in series [3] (PC:PA liposomes, replicate 2), 68.1197%; in series [3] (PC:PA liposomes, replicate 3), 58.6174%.
Turning to “Crocodylus porosus β-defensin 13 (CpoBD13) (from UniProt A0A7G6KN55) H21A”, the response (% (fraction of total)) in series [4] (pH 5.5, parent: est. 20) turned out to be 15; in series [4] (pH 7.4, parent: est. 15), 23; in series [5] (pH 5.5, parent: est. 88), 69; in series [5] (pH 7.4, parent: est. 43), 38.
In the same order, the values of “Crocodylus porosus β-defensin 13 (CpoBD13) (from UniProt A0A7G6KN55) H33A” are 20, 18, 78 and 38.
In the same order, the values of “Crocodylus porosus β-defensin 13 (CpoBD13) (from UniProt A0A7G6KN55) H35A” are 18, 15, 90 and 42.
The matching figures for “Crocodylus porosus β-defensin 13 (CpoBD13) (from UniProt A0A7G6KN55) R9A”: 34, 10, 80 and 17.
As to “Crocodylus porosus β-defensin 13 (CpoBD13) (from UniProt A0A7G6KN55) R17A”, the response (% (fraction of total)) in series [4] (pH 5.5, parent: est. 20) turned out to be 22; in series [4] (pH 7.4, parent: est. 15), 13; in series [5] (pH 5.5, parent: est. 88), 87; in series [5] (pH 7.4, parent: est. 43), 26.

B1: Crocodylus porosus β-defensin 13 (CpoBD13) (peptide, UniProt A0A7G6KN55 22-61, looked up)
chain: NGSYYSTLQCRNNHGHCRRLCFHGEQWIGNCNGRHQHCCK
notes: Crocodylus porosus β-defensin 13, mature defensin domain (nucleotides 142-255 of XM_019537183.1, limits set with SignalP); 114 nucleotides would give 38 residues; Three disulphide bonds; also called wild type CpoBD13; saltwater crocodile defensin; source: Pichia pastoris (pPIC9 vector), purified by cation exchange chromatography
Broadly, the stoichiometry N is the number of molecules, sites or subunits per partner or assembly. In the case of B1, the entries for the “stoichiometry N” value in series [6] and in series [7] were 2 and no more than 5, respectively.
